Data on three compounds can be found in the NIST ThermoML archive (doi:10.1016/j.fluid.2004.11.006).

± gives the expanded uncertainty stated by the source.

Series [1] in a line: Solid-liquid equilibrium temperature. The note with it: 101.3 kPa.
The nature of series [2]: Molar enthalpy of transition or fusion. The note with it: Crystal; DSC.

On to `C1COCCOCCOCCOCCOCCO1` [1,4,7,10,13,16-hexaoxacyclooctadecane], for which the Solid-liquid equilibrium temperature in series [1] (Crystal 1) was determined as 311.76 ± 0.8 K.

On to `C1COCCO1` [1,4-dioxane], for which the Solid-liquid equilibrium temperature in series [1] (Crystal) was 285.08 ± 0.4 K.

On to `CN1CCCC1=O` [N-methylpyrrolidone], for which the Solid-liquid equilibrium temperature in series [1] (Crystal) is listed as 249.68 ± 0.4 K. For the same compound, the “Molar enthalpy of transition or fusion” value in series [2] was determined as 2.64 ± 0.0908 kcal/mol.
